Experimental data as given in ChEMBL document CHEMBL1201862, “PubChem BioAssay data set” (2004).
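Assay format: 96-well plates, 48-hour exposure. The concentration for 50% growth inhibition is given as GI50.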 Active and inactive are the calls of the source. Rule as the data show it: active = GI50 up to about 1.1 µM and inactive = higher.

Columns and labels:
Test in all cases: inhibition of tumour cell growth, NCI panel, 48 h
[1] = test system: SK-MEL-5
[2] = test system: COLO 205
[3] = test system: SNB-75
[4] = test system: HCT-15
[5] = test system: SK-MEL-2
[6] = test system: SF-268
[7] = test system: HL-60
[8] = test system: A549
[9] = test system: A498
[10] = test system: RPMI-8226
[11] = test system: OVCAR-4
[12] = test system: SW-620
[13] = test system: SR
[14] = test system: T47D
[15] = test system: EKVX
[16] = test system: DU-145
[17] = test system: SF-539
[18] = test system: HT-29
[19] = test system: K562
[20] = test system: OVCAR-5

SMILES	GI50 [1]	GI50 [2]	GI50 [3]	GI50 [4] [µM]	GI50 [5]	GI50 [6]	GI50 [7]	GI50 [8]	GI50 [9]	GI50 [10]	GI50 [11]	GI50 [12]	GI50 [13]	GI50 [14]	GI50 [15]	GI50 [16]	GI50 [17]	GI50 [18]	GI50 [19]	GI50 [20]
Cc1cc(S(=O)(=O)Nc2nc(N)nc(N(C)C)n2)c(S)cc1Cl	> 10 µM (inactive)	> 10 µM (inactive)	> 10 µM (inactive)	> 10	> 10 µM (inactive)	> 10 µM (inactive)	> 10 µM (inactive)	> 10 µM (inactive)	> 10 µM (inactive)	> 10 µM (inactive)	> 10 µM (inactive)	> 10 µM (inactive)	> 10 µM (inactive)	> 10 µM (inactive)	> 10 µM (inactive)	> 10 µM (inactive)	> 10 µM (inactive)	> 10 µM (inactive)	> 10 µM (inactive)	> 10 µM (inactive)
CC(=O)CC(=O)Nc1ccc2ccccc2c1	72.4 µM (inactive)	35.5 µM (inactive)	> 100 µM (inactive)	95.3	> 100 µM (inactive)	> 100 µM (inactive)	> 100 µM (inactive)	> 100 µM (inactive)	> 100 µM (inactive)	45.6 µM (inactive)	29.4 µM (inactive)	> 100 µM (inactive)	51.5 µM (inactive)	40.2 µM (inactive)	> 100 µM (inactive)	> 100 µM (inactive)	53.6 µM (inactive)	> 100 µM (inactive)	46.9 µM (inactive)	> 100 µM (inactive)
COc1ccc(/C=C/c2ccnc3ccccc23)cc1OC	14.8 µM (inactive)	12.6 µM (inactive)	–	15.2	19.4 µM (inactive)	14 µM (inactive)	11.3 µM (inactive)	15.1 µM (inactive)	11.5 µM (inactive)	28.1 µM (inactive)	12.3 µM (inactive)	15.7 µM (inactive)	25.5 µM (inactive)	11.7 µM (inactive)	14.6 µM (inactive)	13.7 µM (inactive)	15.8 µM (inactive)	12.4 µM (inactive)	9.79 µM (inactive)	12.9 µM (inactive)
C#CCn1c2c(c3ccccc3c1=O)C(=O)c1ccccc1-2	2.37 µM (inactive)	22.4 µM (inactive)	13.4 µM (inactive)	22.2	29.9 µM (inactive)	14 µM (inactive)	2.94 µM (inactive)	13.6 µM (inactive)	22.7 µM (inactive)	13 µM (inactive)	11.4 µM (inactive)	23.9 µM (inactive)	4.49 µM (inactive)	15.8 µM (inactive)	16.3 µM (inactive)	11.7 µM (inactive)	11.6 µM (inactive)	10.7 µM (inactive)	19 µM (inactive)	24.7 µM (inactive)
CC(=O)Nn1cnc(C(=N)C#N)c1N	> 100 µM (inactive)	> 100 µM (inactive)	> 100 µM (inactive)	> 100	> 100 µM (inactive)	> 100 µM (inactive)	> 100 µM (inactive)	> 100 µM (inactive)	> 100 µM (inactive)	> 100 µM (inactive)	> 100 µM (inactive)	> 100 µM (inactive)	> 100 µM (inactive)	> 100 µM (inactive)	> 100 µM (inactive)	> 100 µM (inactive)	> 100 µM (inactive)	> 100 µM (inactive)	> 100 µM (inactive)	> 100 µM (inactive)
CCO/N=C(/CC)c1ccc(Br)s1	> 100 µM (inactive)	> 100 µM (inactive)	> 100 µM (inactive)	> 100	> 100 µM (inactive)	> 100 µM (inactive)	33 µM (inactive)	> 100 µM (inactive)	> 100 µM (inactive)	–	> 100 µM (inactive)	> 100 µM (inactive)	52.2 µM (inactive)	> 100 µM (inactive)	> 100 µM (inactive)	> 100 µM (inactive)	> 100 µM (inactive)	> 100 µM (inactive)	> 100 µM (inactive)	> 100 µM (inactive)
CCOC(=O)C(=O)/C(=C/n1c(=S)[nH]c2ccc([N+](=O)[O-])cc21)C(=O)OCC	65.5 µM (inactive)	> 100 µM (inactive)	90.4 µM (inactive)	–	> 100 µM (inactive)	> 100 µM (inactive)	> 100 µM (inactive)	> 100 µM (inactive)	> 100 µM (inactive)	> 100 µM (inactive)	> 100 µM (inactive)	> 100 µM (inactive)	> 100 µM (inactive)	> 100 µM (inactive)	–	> 100 µM (inactive)	> 100 µM (inactive)	> 100 µM (inactive)	> 100 µM (inactive)	> 100 µM (inactive)
CCCNC(C#N)c1ccc(OCCCCCCCCCCOc2ccc(C(C#N)NCCC)cc2)cc1 (stereo unspecified)	33.3 µM (inactive)	> 100 µM (inactive)	32.8 µM (inactive)	47.3	38.5 µM (inactive)	61.8 µM (inactive)	17.3 µM (inactive)	47 µM (inactive)	23.1 µM (inactive)	–	34.5 µM (inactive)	41.3 µM (inactive)	25.6 µM (inactive)	64 µM (inactive)	60.5 µM (inactive)	49 µM (inactive)	55.2 µM (inactive)	51.1 µM (inactive)	23.6 µM (inactive)	69.8 µM (inactive)
O=C(CCCN1CCc2[nH]c3cc(F)ccc3c2C1)c1ccc(F)cc1	17.1 µM (inactive)	4.84 µM (inactive)	11 µM (inactive)	16.8	18 µM (inactive)	13.1 µM (inactive)	11.1 µM (inactive)	15.8 µM (inactive)	11.8 µM (inactive)	10 µM (inactive)	13.8 µM (inactive)	> 100 µM (inactive)	8.49 µM (inactive)	18.9 µM (inactive)	14.8 µM (inactive)	13.3 µM (inactive)	16.7 µM (inactive)	6.11 µM (inactive)	5.71 µM (inactive)	12.2 µM (inactive)
CN(C)CCNC(=O)c1cc(-c2nccn2C)nc2ccccc12	> 100 µM (inactive)	> 100 µM (inactive)	> 100 µM (inactive)	66.1	> 100 µM (inactive)	> 100 µM (inactive)	> 100 µM (inactive)	> 100 µM (inactive)	> 100 µM (inactive)	> 100 µM (inactive)	–	> 100 µM (inactive)	> 100 µM (inactive)	> 100 µM (inactive)	> 100 µM (inactive)	> 100 µM (inactive)	> 100 µM (inactive)	> 100 µM (inactive)	> 100 µM (inactive)	> 100 µM (inactive)
CCS(=O)(=O)CCn1cnc2c1c(=O)n(C)c(=O)n2C	> 100 µM (inactive)	> 100 µM (inactive)	> 100 µM (inactive)	> 100	> 100 µM (inactive)	> 100 µM (inactive)	> 100 µM (inactive)	> 100 µM (inactive)	> 100 µM (inactive)	–	> 100 µM (inactive)	> 100 µM (inactive)	0.0318 µM (active)	> 100 µM (inactive)	> 100 µM (inactive)	> 100 µM (inactive)	> 100 µM (inactive)	> 100 µM (inactive)	> 100 µM (inactive)	> 100 µM (inactive)
O=Cc1cc2c(s1)C(=O)c1sccc1C2=O	0.129 µM (active)	2.21 µM (inactive)	0.19 µM (active)	0.381	0.337 µM (active)	0.247 µM (active)	0.863 µM (active)	0.813 µM (active)	1.37 µM (inactive)	0.309 µM (active)	0.22 µM (active)	0.257 µM (active)	0.303 µM (active)	2.28 µM (inactive)	1.61 µM (inactive)	0.18 µM (active)	0.215 µM (active)	1.88 µM (inactive)	0.541 µM (active)	0.865 µM (active)
CC1(C)N/C(=C\[N+](=O)[O-])C(C)(C)N1O	> 10 µM (inactive)	> 10 µM (inactive)	> 10 µM (inactive)	> 10	> 10 µM (inactive)	> 10 µM (inactive)	> 10 µM (inactive)	> 10 µM (inactive)	> 10 µM (inactive)	> 10 µM (inactive)	> 10 µM (inactive)	> 10 µM (inactive)	> 10 µM (inactive)	> 10 µM (inactive)	> 10 µM (inactive)	> 10 µM (inactive)	> 10 µM (inactive)	> 10 µM (inactive)	–	> 10 µM (inactive)
CCOc1cc(NC(C)=O)ccc1C(=O)NN1C(=O)/C(=C/c2ccc(Cl)cc2)N=C1c1ccccc1	24.2 µM (inactive)	33.7 µM (inactive)	40.3 µM (inactive)	35.6	28.3 µM (inactive)	–	34.1 µM (inactive)	37.8 µM (inactive)	24.9 µM (inactive)	25.9 µM (inactive)	22.3 µM (inactive)	> 100 µM (inactive)	46 µM (inactive)	13.2 µM (inactive)	26 µM (inactive)	68.5 µM (inactive)	90.2 µM (inactive)	52.6 µM (inactive)	35.2 µM (inactive)	> 100 µM (inactive)
Cc1sc2ncnc(NCCc3ccccc3)c2c1C	1.33 µM (inactive)	11 µM (inactive)	16.4 µM (inactive)	21.5	14.8 µM (inactive)	21.8 µM (inactive)	9.02 µM (inactive)	14.7 µM (inactive)	11.1 µM (inactive)	10.2 µM (inactive)	13.6 µM (inactive)	25.5 µM (inactive)	0.579 µM (active)	2.29 µM (inactive)	1.68 µM (inactive)	18.8 µM (inactive)	15 µM (inactive)	14.6 µM (inactive)	2 µM (inactive)	15.4 µM (inactive)
